Test system: MV-4-11 cells
Assay: Gene expression microarray analysis (Affymetrix PrimeView) and GSEA
Format: cell-based, human
Set-up: RFU PODN (11730768_x_at) / Fold change /veh PODN (11730768_x_at) / RFU LINC00158 (11744669_a_at) / Fold change /veh LINC00158 (11744669_a_at) / RFU DUSP10 (11751237_a_at) / Fold change /veh DUSP10 (11751237_a_at) / RFU ID3 (11757404_x_at) / Fold change /veh ID3 (11757404_x_at) / RFU PLEKHG5 (11737974_s_at) / Fold change /veh PLEKHG5 (11737974_s_at) / RFU LRRC4B (11730491_at) / Fold change /veh LRRC4B (11730491_at) / RFU GIMAP4 (11747438_a_at) / Fold change /veh GIMAP4 (11747438_a_at) / RFU KRT8 (11758183_x_at) / Fold change /veh KRT8 (11758183_x_at) / RFU CNN1 (11734310_a_at) / Fold change /veh CNN1 (11734310_a_at) / RFU VPS37D (11726825_at) / Fold change /veh VPS37D (11726825_at) / RFU C10orf10 (11716522_x_at) / Fold change /veh C10orf10 (11716522_x_at) / RFU KIR2DL2 /// KIR2DL4 /// KIR2DL5A /// KIR2DL5B /// KIR2DS1 /// KIR2DS2 /// KIR2DS3 /// KIR2DS4 /// KIR3DL3 /// KIR3DL3 /// KIR3DS1 (11738374_at) / Fold change /veh KIR2DL2 /// KIR2DL4 /// KIR2DL5A /// KIR2DL5B /// KIR2DS1 /// KIR2DS2 /// KIR2DS3 /// KIR2DS4 /// KIR3DL3 /// KIR3DL3 /// KIR3DS1 (11738374_at) / RFU C1QL1 (11718748_at) / Fold change /veh C1QL1 (11718748_at) / RFU TMPRSS4 (11747572_a_at) / Fold change /veh TMPRSS4 (11747572_a_at) / RFU HAMP (11756126_x_at) / Fold change /veh HAMP (11756126_x_at) / RFU RNFT2 (11725882_a_at) / Fold change /veh RNFT2 (11725882_a_at) / RFU NR4A2 (11747474_a_at) / Fold change /veh NR4A2 (11747474_a_at) / RFU ABCC12 (11746883_a_at) / Fold change /veh ABCC12 (11746883_a_at) / RFU TMEM136 (11760407_x_at) / Fold change /veh TMEM136 (11760407_x_at) / RFU CLDN22 /// WWC2 (11732394_at) / Fold change /veh CLDN22 /// WWC2 (11732394_at) / RFU HLA-DPB1 (11760878_x_at) / Fold change /veh HLA-DPB1 (11760878_x_at) / RFU SPINT1 (11716480_a_at) / Fold change /veh SPINT1 (11716480_a_at) / RFU GAP43 (11754022_s_at) / Fold change /veh GAP43 (11754022_s_at) / RFU A4GNT (11735810_at) / Fold change /veh A4GNT (11735810_at) / RFU PRB3 (11715151_x_at) / Fold change /veh PRB3 (11715151_x_at) / RFU TUBB4B (11761932_at) / Fold change /veh TUBB4B (11761932_at) / RFU CAPN14 (11732068_a_at) / Fold change /veh CAPN14 (11732068_a_at) / RFU TMCC2 (11721928_a_at) / Fold change /veh TMCC2 (11721928_a_at) / RFU IRGQ (11745062_a_at) / Fold change /veh IRGQ (11745062_a_at) / RFU FAM174B (11720279_a_at) / Fold change /veh FAM174B (11720279_a_at) / RFU TMPRSS4 (11748680_a_at) / Fold change /veh TMPRSS4 (11748680_a_at) / RFU FAM212B (11763350_a_at) / Fold change /veh FAM212B (11763350_a_at) / RFU PLEKHG5 (11743358_a_at) / Fold change /veh PLEKHG5 (11743358_a_at) / RFU ZSCAN30 (11745921_a_at) / Fold change /veh ZSCAN30 (11745921_a_at) / RFU CMKLR1 (11741424_a_at) / Fold change /veh CMKLR1 (11741424_a_at) / RFU LOC101060620 /// MAPK8IP1 (11723275_at) / Fold change /veh LOC101060620 /// MAPK8IP1 (11723275_at) / RFU SPTSSB (11747773_x_at) / Fold change /veh SPTSSB (11747773_x_at) / RFU PRSS12 (11739890_at) / Fold change /veh PRSS12 (11739890_at) / RFU BIN1 (11741810_x_at) / Fold change /veh BIN1 (11741810_x_at) / RFU WNT11 (11732464_a_at) / Fold change /veh WNT11 (11732464_a_at) / RFU C10orf10 (11716521_a_at) / Fold change /veh C10orf10 (11716521_a_at) / RFU C5orf56 (11738089_at) / Fold change /veh C5orf56 (11738089_at) / RFU CYB561 (11721691_x_at) / Fold change /veh CYB561 (11721691_x_at) / RFU ANKRD19P (11752326_a_at) / Fold change /veh ANKRD19P (11752326_a_at) / RFU OR2T12 /// OR2T33 /// OR2T8 (11738714_s_at) / Fold change /veh OR2T12 /// OR2T33 /// OR2T8 (11738714_s_at) / RFU VCAN (11748164_a_at) / Fold change /veh VCAN (11748164_a_at) / RFU JSRP1 (11732532_at) / Fold change /veh JSRP1 (11732532_at) / RFU KRTAP10-11 (11738290_x_at) / Fold change /veh KRTAP10-11 (11738290_x_at) / RFU MYO3A (11730013_a_at) / Fold change /veh MYO3A (11730013_a_at) / RFU EBF3 (11725865_a_at) / Fold change /veh EBF3 (11725865_a_at) / RFU CAMK2N1 (11719241_x_at) / Fold change /veh CAMK2N1 (11719241_x_at) / RFU C5orf56 (11738088_a_at) / Fold change /veh C5orf56 (11738088_a_at) / RFU OLFML3 (11715873_a_at) / Fold change /veh OLFML3 (11715873_a_at) / RFU LOC100653217 /// NTM (11731650_a_at) / Fold change /veh LOC100653217 /// NTM (11731650_a_at) / RFU MAPK11 (11762145_a_at) / Fold change /veh MAPK11 (11762145_a_at) / RFU FIZ1 (11724087_x_at) / Fold change /veh FIZ1 (11724087_x_at) / RFU OASL (11726364_x_at) / Fold change /veh OASL (11726364_x_at) / RFU SOX15 (11748057_x_at) / Fold change /veh SOX15 (11748057_x_at) / RFU CD79A (11719716_a_at) / Fold change /veh CD79A (11719716_a_at) / RFU HIST1H1D (11736915_at) / Fold change /veh HIST1H1D (11736915_at) / RFU CASKIN2 (11723855_a_at) / Fold change /veh CASKIN2 (11723855_a_at) / RFU LOC730098 (11760151_x_at) / Fold change /veh LOC730098 (11760151_x_at) / RFU OR4N2 (11742367_at) / Fold change /veh OR4N2 (11742367_at) / RFU PRRT2 (11749266_a_at) / Fold change /veh PRRT2 (11749266_a_at) / RFU SNX32 (11753110_a_at) / Fold change /veh SNX32 (11753110_a_at) / RFU CDHR5 (11726645_a_at) / Fold change /veh CDHR5 (11726645_a_at) / RFU RCAN1 (11760418_a_at) / Fold change /veh RCAN1 (11760418_a_at) / RFU FAM167A (11723789_a_at) / Fold change /veh FAM167A (11723789_a_at) / RFU FAM26E (11764081_at) / Fold change /veh FAM26E (11764081_at) / RFU ISYNA1 (11749810_s_at) / Fold change /veh ISYNA1 (11749810_s_at) / RFU ACY1 (11761880_at) / Fold change /veh ACY1 (11761880_at) / RFU 11764098_at / Fold change /veh 11764098_at / RFU SAMD14 (11745864_x_at) / Fold change /veh SAMD14 (11745864_x_at) / RFU NPB (11741838_a_at) / Fold change /veh NPB (11741838_a_at) / RFU TMPRSS6 (11731388_a_at) / Fold change /veh TMPRSS6 (11731388_a_at) / RFU KRTAP10-2 (11738614_at) / Fold change /veh KRTAP10-2 (11738614_at) / RFU ARHGAP8 /// PRR5-ARHGAP8 (11727945_x_at) / Fold change /veh ARHGAP8 /// PRR5-ARHGAP8 (11727945_x_at) / RFU KRTAP5-7 /// NADSYN1 (11734609_at) / Fold change /veh KRTAP5-7 /// NADSYN1 (11734609_at) / RFU RASL12 (11751679_a_at) / Fold change /veh RASL12 (11751679_a_at) / RFU CDKN2B (11736163_a_at) / Fold change /veh CDKN2B (11736163_a_at) / RFU PRF1 (11729649_at) / Fold change /veh PRF1 (11729649_at) / RFU, ZNF638 /// ZNF638-IT1 / Fold change vs veh, ZNF638 /// ZNF638-IT1 / RFU, PANK3 / Fold change vs veh, PANK3 / RFU, SH3YL1 / Fold change vs veh, SH3YL1 / RFU, ZEB2 / Fold change vs veh, ZEB2 / RFU, NRIP1 / Fold change vs veh, NRIP1 / RFU, PTTG1IP / Fold change vs veh, PTTG1IP / RFU, CAPN2 / Fold change vs veh, CAPN2 / RFU, MED14 / Fold change vs veh, MED14 / RFU, SNORA58 / Fold change vs veh, SNORA58 / RFU, C1orf63 / Fold change vs veh, C1orf63 / RFU, LRRFIP1 / Fold change vs veh, LRRFIP1 / RFU, NDUFAF7 / Fold change vs veh, NDUFAF7 / RFU, SLC12A2 / Fold change vs veh, SLC12A2 / RFU, IBTK / Fold change vs veh, IBTK / RFU, ESF1 / Fold change vs veh, ESF1 / Fold change vs veh, TMEM50B / RFU, TAOK1 / Fold change vs veh, TAOK1 / RFU, ACBD3 / Fold change vs veh, ACBD3 / RFU, TMA16 / Fold change vs veh, TMA16 / RFU, RWDD3 / Fold change vs veh, RWDD3 / RFU, BCAT1 / Fold change vs veh, BCAT1 / RFU, EDEM3 / Fold change vs veh, EDEM3 / RFU, TMEM33 / Fold change vs veh, TMEM33 / RFU, WDR75 / Fold change vs veh, WDR75 / RFU, AHCTF1 / Fold change vs veh, AHCTF1 / RFU, TFRC / Fold change vs veh, TFRC / RFU, ZDHHC17 / Fold change vs veh, ZDHHC17 / RFU, NOM1 / Fold change vs veh, NOM1 / RFU, ARL8B / Fold change vs veh, ARL8B / RFU, ZBTB11 / Fold change vs veh, ZBTB11 / RFU, TAMM41 / Fold change vs veh, TAMM41 / RFU, KIAA1704 /// LOC100996395 / Fold change vs veh, KIAA1704 /// LOC100996395 / RFU, ING1 / Fold change vs veh, ING1 / RFU, TRMT61B / Fold change vs veh, TRMT61B / RFU, FUBP3 / Fold change vs veh, FUBP3 / RFU, TP53 / Fold change vs veh, TP53 / RFU, TNKS2 / Fold change vs veh, TNKS2 / RFU, ZFP14 / Fold change vs veh, ZFP14 / RFU, ACTR2 / Fold change vs veh, ACTR2 / RFU, PPP3R1 / Fold change vs veh, PPP3R1 / RFU, PIK3R1 / Fold change vs veh, PIK3R1 / RFU, HNRNPA1 / Fold change vs veh, HNRNPA1 / RFU, RNF170 / Fold change vs veh, RNF170 / RFU, ZNF28 / Fold change vs veh, ZNF28 / RFU, RNGTT / Fold change vs veh, RNGTT / RFU, OGT / Fold change vs veh, OGT / RFU, BRD1 / Fold change vs veh, BRD1 / RFU, MARS / Fold change vs veh, MARS / RFU, ZNF655 / Fold change vs veh, ZNF655 / RFU, FAHD1 / Fold change vs veh, FAHD1 / RFU, BDP1 / Fold change vs veh, BDP1 / RFU, LRRCC1 / Fold change vs veh, LRRCC1 / RFU, ARID1A / Fold change vs veh, ARID1A / RFU, ZNF146 / Fold change vs veh, ZNF146 / RFU, ZNF330 / Fold change vs veh, ZNF330 / RFU, GPN3 / Fold change vs veh, GPN3 / RFU, C9orf123 / Fold change vs veh, C9orf123 / RFU, N4BP2L2 / Fold change vs veh, N4BP2L2 / RFU, ARFIP1 / Fold change vs veh, ARFIP1 / RFU, FAM179B / Fold change vs veh, FAM179B / RFU, BCL10 / Fold change vs veh, BCL10 / RFU, UHRF1BP1L / Fold change vs veh, UHRF1BP1L / RFU, BET1 / Fold change vs veh, BET1 / RFU, CNOT2 / Fold change vs veh, CNOT2 / RFU, ZNF268 / Fold change vs veh, ZNF268 / Fold change vs veh, ZNF507 / RFU, DGCR2 / Fold change vs veh, DGCR2 / RFU, WDSUB1 / Fold change vs veh, WDSUB1 / Fold change vs veh, HSP90B1 /// MIR3652 / RFU, ADSS / Fold change vs veh, ADSS / RFU, GK / Fold change vs veh, GK / RFU, ZNF148 / Fold change vs veh, ZNF148 / RFU, TAF9 / Fold change vs veh, TAF9 / RFU, SLC1A5 / Fold change vs veh, SLC1A5 / RFU, SLMO2 / Fold change vs veh, SLMO2 / RFU, ABCC4 / Fold change vs veh, ABCC4 / RFU, LOC101060439 /// RAP1B / Fold change vs veh, LOC101060439 /// RAP1B / RFU, RFX7 / Fold change vs veh, RFX7 / RFU, GTPBP10 / Fold change vs veh, GTPBP10 / RFU, CNEP1R1 / Fold change vs veh, CNEP1R1 / RFU, BIVM-ERCC5 /// ERCC5 / Fold change vs veh, BIVM-ERCC5 /// ERCC5 / RFU, ILF3 / Fold change vs veh, ILF3 / RFU 11762660_at / Fold change /veh 11762660_at / RFU VCAN (11757783_s_at) / Fold change /veh VCAN (11757783_s_at) / RFU DDX43 (11728927_at) / Fold change /veh DDX43 (11728927_at) / RFU KRT8 (11758188_x_at) / Fold change /veh KRT8 (11758188_x_at) / RFU NKD1 (11759106_at) / Fold change /veh NKD1 (11759106_at) / RFU SRD5A1 (11742802_a_at) / Fold change /veh SRD5A1 (11742802_a_at) / RFU TPSAB1 /// TPSB2 (11721975_s_at) / Fold change /veh TPSAB1 /// TPSB2 (11721975_s_at) / RFU GSTM3 (11746129_a_at) / Fold change /veh GSTM3 (11746129_a_at) / RFU IL23R (11737362_x_at) / Fold change /veh IL23R (11737362_x_at) / RFU TMEM51 (11727254_a_at) / Fold change /veh TMEM51 (11727254_a_at) / RFU PIWIL2 (11732686_x_at) / Fold change /veh PIWIL2 (11732686_x_at) / RFU ORM1 (11744905_x_at) / Fold change /veh ORM1 (11744905_x_at) / RFU CCDC152 (11743942_at) / Fold change /veh CCDC152 (11743942_at) / RFU ECM1 (11717891_a_at) / Fold change /veh ECM1 (11717891_a_at) / RFU IL23R (11748794_a_at) / Fold change /veh IL23R (11748794_a_at) / RFU TNFAIP8L3 (11732012_x_at) / Fold change /veh TNFAIP8L3 (11732012_x_at) / RFU MBOAT4 (11741988_at) / Fold change /veh MBOAT4 (11741988_at) / RFU 11764193_at / Fold change /veh 11764193_at / RFU TMEM53 (11763286_at) / Fold change /veh TMEM53 (11763286_at) / RFU MAGEB2 (11727129_at) / Fold change /veh MAGEB2 (11727129_at) / RFU TMEM200A (11744735_a_at) / Fold change /veh TMEM200A (11744735_a_at) / RFU CCDC152 (11751479_a_at) / Fold change /veh CCDC152 (11751479_a_at) / RFU FAM211A (11726209_a_at) / Fold change /veh FAM211A (11726209_a_at) / RFU RGS16 (11746705_a_at) / Fold change /veh RGS16 (11746705_a_at) / RFU VCAN (11755009_s_at) / Fold change /veh VCAN (11755009_s_at) / RFU RHOB (11743442_s_at) / Fold change /veh RHOB (11743442_s_at) / RFU RGS16 (11720943_a_at) / Fold change /veh RGS16 (11720943_a_at) / RFU RGS16 (11720944_at) / Fold change /veh RGS16 (11720944_at) / RFU, VPS4B / Fold change vs veh, VPS4B / RFU, CREB1 / Fold change vs veh, CREB1 / RFU, DNAJC13 / Fold change vs veh, DNAJC13 / RFU, GNAQ / Fold change vs veh, GNAQ / RFU, CDK5R1 / Fold change vs veh, CDK5R1 / RFU, ZRANB3 / Fold change vs veh, ZRANB3 / RFU, CUL4A / Fold change vs veh, CUL4A / RFU, CCNY / Fold change vs veh, CCNY / RFU, UFL1 / Fold change vs veh, UFL1 / RFU, COG3 / Fold change vs veh, COG3 / RFU, DIAPH2 / Fold change vs veh, DIAPH2 / RFU, SKA2 / Fold change vs veh, SKA2 / RFU, AFF3 / Fold change vs veh, AFF3 / RFU, LMF1 / Fold change vs veh, LMF1 / RFU, IPO11 / Fold change vs veh, IPO11 / RFU, DFFB / Fold change vs veh, DFFB / RFU, FOXP1 / Fold change vs veh, FOXP1 / RFU, CARD8 / Fold change vs veh, CARD8 / RFU, STRN3 / Fold change vs veh, STRN3 / RFU, ADK / Fold change vs veh, ADK / RFU, RASSF2 / Fold change vs veh, RASSF2 / RFU, WIPF1 / Fold change vs veh, WIPF1 / RFU, LARP1B / Fold change vs veh, LARP1B / RFU, RASA1 / Fold change vs veh, RASA1 / RFU, RB1 / Fold change vs veh, RB1 / RFU, PPFIA1 / Fold change vs veh, PPFIA1 / RFU, MAT2A / Fold change vs veh, MAT2A / RFU, CCT5 / Fold change vs veh, CCT5 / RFU, WDR92 / Fold change vs veh, WDR92 / RFU, CUX1 / Fold change vs veh, CUX1 / RFU, TTC7A / Fold change vs veh, TTC7A / RFU, TMEM135 / Fold change vs veh, TMEM135 / RFU, DEPTOR / Fold change vs veh, DEPTOR / RFU, CPM / Fold change vs veh, CPM / RFU, DNAJB6 / Fold change vs veh, DNAJB6 / RFU, CACNA2D3 / Fold change vs veh, CACNA2D3 / RFU, DTX4 / Fold change vs veh, DTX4 / RFU, TFCP2 / Fold change vs veh, TFCP2 / RFU, GMCL1 /// GMCL1P1 / Fold change vs veh, GMCL1 /// GMCL1P1 / RFU, AEBP2 / Fold change vs veh, AEBP2 / RFU, SNHG1 /// SNORD22 /// SNORD25 /// SNORD26 /// SNORD27 /// SNORD28 /// SNORD29 /// SNORD31 / Fold change vs veh, SNHG1 /// SNORD22 /// SNORD25 /// SNORD26 /// SNORD27 /// SNORD28 /// SNORD29 /// SNORD31 / Fold change (Aza/veh), C12orf56 (ProbeSet 11735607_a_at) / Fold change (ACY-1035/veh), C12orf56 (ProbeSet 11735607_a_at) / Fold change (Aza/veh), FGFR1OP (ProbeSet 11751329_s_at) / Fold change (ACY-1035/veh), FGFR1OP (ProbeSet 11751329_s_at) / Fold change (Aza/veh), VPS36 (ProbeSet 11739960_a_at) / Fold change (ACY-1035/veh), VPS36 (ProbeSet 11739960_a_at) / RFU SYPL1 (11715823_x_at) / Fold change /veh SYPL1 (11715823_x_at) / RFU IGFBP7 (11715501_s_at) / Fold change /veh IGFBP7 (11715501_s_at) / RFU REEP3 (11722064_at) / Fold change /veh REEP3 (11722064_at) / RFU IGLL1 (11728026_x_at) / Fold change /veh IGLL1 (11728026_x_at): dose or concentration left out as unconfirmed
Conditions: ProbeSet 11720269_a_at; LIST B

Nc1ncn([C@@H]2O[C@H](CO)[C@@H](O)[C@H]2O)c(=O)n1 [azacitidine]
Fold change vs veh, IBTK: 0.94
